For test [1], the target named is ACC1 (Homo sapiens (Human), UniProt Q13085). The test is described as follows: In vitro ACC inhibition assay (ADP-Glo), ACC1. The test is classed as biochemical. As to conditions: for IC50: 0.5 nM ACC, 10 μM ATP, 5 μM acetyl-CoA, read-out: Enzymatic activity IC50 ACC1. As to the method: An exemplary procedure for the in vitro ACC inhibition assay, which can be used to determine the inhibitory action of the compounds of the invention toward either ACC1 or ACC2, is as follows. The ADP-Glo™ kinase assay kit from Promega was used. The ADP-Glo™ kinase assay is a luminescent ADP detection assay to measure enzymatic activity by quantifying the amount of ADP produced during an enzyme reaction. The assay was performed in two steps; first, after the enzyme reaction, an equal volume of ADP-Glo™ reagent was added to terminate the reaction and deplete the remaining ATP. Then, the kinase detection reagent was added to simultaneously convert ADP to ATP and allow the newly synthesized ATP to be measured using a luciferase/luciferin reaction. Luminescence can be correlated to ADP concentrations by using an ATP-to-ADP conversion curve. The detailed procedure was as follows. 4.5 μL of a working solution was added to a 384-well plate. The compound was diluted at 1:3 in succession in DMSO. 0.5 μL of diluted compound solution was added to a 384-well white Optiplate assay plate. The plates were incubated at room temperature for 15 minutes. 5 μL of substrate working solution was added to each well to initiate the reaction. A final ACC reaction solution consisted of: 0.5 nM ACC, 10 μM ATP, 5 μM acetyl-CoA, and 15 mM NaHCO3; and the final concentrations of the compound were measured as follows: 1 μM, 0.333 μM, 0.111 μM, 0.037 μM, 0.0123 μM, 0.00411 μM, 0.00137 μM, 0.000457 μM, 0.000152 μM, and 0.000051 μM. The plates were incubated at room temperature for 30 minutes. 10 μL of ADP-Glo™ reagent was added, and the plates were incubated at room temperature for 40 minutes. 20 μL of kinase detection reagent was added. The plates were incubated at room temperature for 40 minutes, then read on a Perkin Elmer EnVision 2104 plate reader for luminescence in relative light unit (RLU).
Data for each concentration, as well as the positive and negative controls were averaged, and the standard deviation was calculated. Percent inhibition was calculated by the formula: 100×(average negative control−compound)/(average negative control−average positive control). The IC50 for each compound was calculated by fitting the data with a non-linear regression equation: Y=Bottom+(Top−Bottom)/(1+10^((Log IC50−X)×HillSlope)), where X is the log of compound concentration and Y is the percent inhibition.
In general terms: ADP-Glo first removes unused ATP, then detects ADP through luciferase.

Test [2] has as its system HepG2 cells. Description: [2-14C]-acetate incorporation assay in HepG2 cells. The test is classed as cell-based. As to conditions: for IC50: Homo sapiens, HepG2 cells, read-out: IC50 [2-14C]-acetate binding assay. The procedure: [2-^14C]-Acetate Incorporation Assay in HepG2 Cells
DMEM (GIBCO, catalog number: 11965-092) was used as a complete culture medium for HepG2 cells (ATCC, catalog number: HB-8064). 10% fetal bovein serum (FBS, GIBCO, catalog number: 10099-141), penicillin (100 units/mL) and streptomycin (100 μg/mL) (Pen/Strep, GIBCO, catalog number: 15140-122) were added to a DMEM culture medium.
HepG2 cells were cultured in a 37° C. incubator holding 5% carbon dioxide, and passaged every 2-3 days.
The HepG2 cells were spread on a 24-well plate (Corning, catalog number: 3524) at a density of 2×10^5 cells-well, 500 μL per well, and cultured in a 37° C. incubator holding 5% carbon dioxide. On the fourth day of culture, 50 μL of a compound diluted at a gradient of 1:3 was added, with the final concentration of DMSO of 0.5% (v/v); and the cells were cultured for 1 hour in the incubator. 1 μCi [2-^14C]-sodium acetate (Perkin Elmer, catalog number: NEC085H001MC) was added to each well, and culture was conducted for another 5 hours. The culture medium in each well was transferred to a 15 mL centrifugal tube (BD, catalog number: 352096); 0.5 mL of 0.1 M NaOH was added; the cells were blown and washed repeatedly, and then transferred to new centrifugal tubes. Then, 1 mL of ethanol and 0.17 mL of 50% KOH solution were added to each centrifugal tube, which was then treated in a water bath at 90° C. for 1 hour. Next, the mixture was cooled to room temperature; 5 mL of petroleum ether was added to each centrifugal tube, which was turned upside down several times for mixing; the resulting mixture was centrifuged for 5 minutes (Eppendorf, Model: 5702, 1000 rpm); and an upper organic phase was discarded. 1 mL of concentrated hydrochloric acid was added to each centrifugal tube and centrifuged for 5 minutes, and 4 mL of petroleum ether was transferred into a glass tube (18×180 mm). The sample in the glass tube was dried at 64° C., and then dissolved and resuspended by addition of 400 μL of spotting solution (chloroform:n-hexane=1:1). 50 μL of the dissolved sample was drawn by a pipette (BIOHIT, Model: Proline Plus), and spotted onto an Isoplate-96-microwell plate (Perkin Elmer, catalog number: 6005040), and 200 μL of ULTIMA GOLD scintillation solution (Perkin Elmer, catalog number: 77-16061) was added, standing for 5 minutes. Finally, MicroBeta (PerkinElmer, Model: 2450) was used to read scintillation signals.
A 4-parameter logistic model or sigmoidal dose-response model in XLFit 5.3.1.3 (2006-2011 I D Business Solutions Limited) was used to fit IC50: fit=(A+((B−A)/(1+((C/x)^D)))); where the x-axis represented the log of compound concentration, and the y-axis represented count per minute (CPM).

For orientation: IC50 means the concentration that inhibits the measured activity by half. As for `COc1ccccc1[C@H](Cn1c(=O)n([C@H]2C[C@H](CC(=O)O)C2)c(=O)c2c(C)c(-c3ncco3)sc21)OC1CCOCC1` [c-3-1, 2-((1R,3r)-3-(1-((R)-2-(2-methoxyphenyl)-2-((tetrahydro-2H-pyran-4-yl)oxy)ethyl)-5-methyl-6-(oxazol-2-yl)-2,4-dioxo-1,2-dihydrothieno[2,3-d]pyrimidine-3(4H)-yl)cyclobutyl)acetic acid], in test [1], the “inhibitory properties against ACC1 (in words)” value is given as “good inhibitory properties” and the IC50 was found to be 0.836 nM. Further, in test [2], the “inhibitory properties against HepG2 cells (in words)” value is on record as “good inhibitory properties” and the IC50 was found to be 13.1 nM.
Take `COc1ccccc1[C@H](Cn1c(=O)n([C@H]2C[C@@H](CC(=O)O)C2)c(=O)c2c(C)c(-c3ncco3)sc21)OC1CCOCC1` [c-3-2, 2-((1S,3s)-3-(1-((R)-2-(2-methoxyphenyl)-2-((tetrahydro-2H-pyran-4-yl)oxy)ethyl)-5-methyl-6-(oxazol-2-yl)-2,4-dioxo-1,2-dihydrothieno[2,3-d]pyrimidine-3(4H)-yl)cyclobutyl)acetic acid]: in test [1], the “inhibitory properties against ACC1 (in words)” value is reported as “good inhibitory properties” and the IC50 was determined as 1.12 nM. Further, in test [2], the “inhibitory properties against HepG2 cells (in words)” value is given as “good inhibitory properties” and the 50% inhibitory concentration (IC50) turned out to be 18 nM.

The values are drawn from patent US12384798B2, “ACC inhibitor and use thereof” (NANJING RUIJIE PHARMA CO., LTD., priority 2019, dated 2025).
